Data: patent US10202360B2 (CELGENE QUANTICEL RESEARCH, INC., priority 2016, dated 2019)

Experiments:
[1] = target: CREBBP (Homo sapiens (Human), UniProt Q92793); assay: In vitro enzyme inhibition assay - CREBBP inhibition (AlphaScreen, biotinylated H4-tetraacetyl peptide); type: binding
Method in brief: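 Displacement of 20 nM biotinylated tetraacetyl-H4 peptide from 50 nM E. coli-expressed His-CREBBP, measured by AlphaScreen after bead equilibration for 2 h.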

[2] = target: BRD4 (Homo sapiens (Human), UniProt O60885); assay: In vitro enzyme inhibition assay - BRD4 inhibition (as described in U.S. Pat. No. 9,034,900); type: binding; settings: Table 29; BRD4 BD1
[3] = Table 28, AlphaScreen, H4-tetraacetyl peptide

Chain of CREBBP (Q92793 1081-1197): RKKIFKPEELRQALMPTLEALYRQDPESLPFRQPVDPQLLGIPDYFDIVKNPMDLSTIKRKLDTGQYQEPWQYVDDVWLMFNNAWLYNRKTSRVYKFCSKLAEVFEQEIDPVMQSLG

Row | Compound | IC50 [1, 3] [nM] | IC50 ([1]; Table 29) [nM] | IC50 [2] [nM]
1 | Cc1cc(Cl)cc(Cl)c1Oc1nc(NS(=O)(=O)C(C)C)cc(-c2cc(C)c(=O)n(C)c2)n1 [Example 33, Propane-2-sulfonic acid [2-(2,4-dichloro-6-methyl-phenoxy)-6-(1,5-dimethyl-6-oxo-1,6-dihydro-pyridin-3-yl)-pyrimidin-4-yl]-amide] | < 500 | < 500 | > 5000
2 | CCCCS(=O)(=O)Nc1cc(-c2cc(C)c(=O)n(C)c2)nc(Oc2c(Cl)cccc2CC)n1 [Example 41, Butane-1-sulfonic acid [2-(2-chloro-6-ethyl-phenoxy)-6-(1,5-dimethyl-6-oxo-1,6-dihydro-pyridin-3-yl)-pyrimidin-4-yl]-amide] | < 500 | < 500 | > 5000
3 | Cc1cc(-c2cc(NS(=O)(=O)C3CCCC3)nc(Oc3ccc(F)cc3F)n2)cn(C)c1=O [Example 66, N-(2-(2,4-difluorophenoxy)-6-(1,5-dimethyl-6-oxo-1,6-dihydropyridin-3-yl)pyrimidin-4-yl)cyclopentanesulfonamide] | < 500 | < 500 | 500 to 5000
4 | CCCCS(=O)(=O)Nc1cc(-c2cc(C)c(=O)n(C)c2)nc(Oc2c(C)cccc2C)n1 [Example 72, N-(6-(1,5-dimethyl-6-oxo-1,6-dihydropyridin-3-yl)-2-(2,6-dimethylphenoxy)pyrimidin-4-yl)butane-1-sulfonamide] | < 500 | < 500 | > 5000
5 | CCCCS(=O)(=O)Nc1cc(-c2cc(Cl)c(=O)n(C)c2)nc(Oc2c(C)cccc2C)n1 [Example 87, N-(6-(5-chloro-1-methyl-6-oxo-1,6-dihydropyridin-3-yl)-2-(2,6-dimethylphenoxy)pyrimidin-4-yl)butane-1-sulfonamide] | < 500 | < 500 | > 5000
6 | CCCCS(=O)(=O)Nc1cc(-c2ccc(=O)n(C)c2)nc(Oc2c(C)cccc2F)n1 [Example 113, Butane-1-sulfonic acid [2-(2-fluoro-6-methyl-phenoxy)-6-(1-methyl-6-oxo-1,6-dihydro-pyridin-3-yl)-pyrimidin-4-yl]-amide] | < 500 | < 500 | > 5000
7 | CCS(=O)(=O)Nc1ncc(Oc2ccc(F)cc2F)c(-c2cc(C)c(=O)n(C)c2)n1 [N-(5-(2,4-difluorophenoxy)-4-(1,5-dimethyl-6-oxo-1,6-dihydropyridin-3-yl)-pyrimidin-2-yl)ethanesulfonamide] |  | > 5000 | < 500
8 | Cc1cc(-c2nc(NS(C)(=O)=O)ncc2Oc2ccc(F)cc2F)cn(C)c1=O [N-(5-(2,4-difluorophenoxy)-4-(1,5-dimethyl-6-oxo-1,6-dihydropyridin-3-yl)-pyrimidin-2-yl)methanesulfonamide] |  | > 5000 | < 500
